Test results from patent US20230364118A1, “RIBITOL TREATMENT” (priority 2020, published 2023).
“And” between values parts separate entries of the source, which are not always exact repeats. Equal values may be shown once. Read-outs that look alike come from different tables or passages of the source.

Key:
[1] = 28-day oral GLP toxicity study with 14-day recovery; conditions: minipig
Protocol: The purpose of this GLP study was to assess the potential toxicity, reversibility, persistence, or delayed effects of ribitol in minipigs following 28 days of BID oral gavage dosing with a 14 day recovery period. In addition, the plasma TK profile of ribitol was evaluated on Days 1 and 28. Four Bama minipigs/sex/group were administered 0 (vehicle control, purified water), 0.1, 0.3, or 1.0 g/kg/dose ribitol by oral gavage BID (0.2, 0.6, 2.0 g/kg/day; 6 hours apart) for 28 days. In addition, 2 minipigs/sex/group were treated for 28 days with either vehicle (water) or 1.0 g/kg/dose ribitol BID (2.0 g/kg/day) followed by 14-day treatment-free recovery period. In-life assessments included mortality, clinical signs including detailed clinical observations pre-test and once weekly during the dosing and recovery phase, body weight, food consumption, ophthalmology, electrocardiography, and clinical pathology (hematology, coagulation, serum chemistry, and urinalysis). Terminal endpoints included macroscopic pathology, organ weights and histopathology. Blood was taken for plasma TK on Days 1 and 28.

[2] = 7-day repeat-dose oral toxicokinetics; format: in vivo, Bama minipig; conditions: for Tmax / Cmax / AUC(0-t): Bama, minipig, plasma; for AUC(0-t): read-out: AUC0-24
Protocol: Toxicokinetics were evaluated as part of a 7-day oral repeat-dose dose range finding study in Bama minipigs. […] On Days 1 and 7, blood was taken for plasma TK at 0 (pre first dose), 0.5, 1, 2, 4, 6 (pre-second dose), 6.5, 7, 8, 10, and 24 hours post-first dose.

Phase 2 patient study = format: in vivo, human; conditions: for average drop in fatigue (scale of 1 to 10): 90 days
Text: Ribitol is being tested in an ongoing Phase 2 study with 14 patients receiving doses of either 6 g once daily (QD), 6 g twice daily (BID), or 12 g BID. Data is available following 3 months of therapeutic exposure in 8 subjects (6 g QD, n=4, 6 g BID, n=4). […] All 12 subjects have shown decreases in creatine kinase from baseline. Younger, ambulatory patients started with higher baseline creatine kinase values and had the largest magnitude drops. Decreases were observable starting at day 8 with continued declines through day 90. Efficacy studies are ongoing. Improvements in 10-meter walk test (MWT) to test ambulation, NSAD for gross motor function, PUL2.0 for upper limb function, and spirometry for respiratory function have been observed (Table 17). […] Decreases in patient-reported muscle fatigue over the 90-day treatment period has been observed in 7 of 8 patients. These 7/8 patients have reported decreases as recorded in a daily diary and noted on a scale of 1 to 10 where 1 indicates no fatigue and a 10 is the maximum level of fatigue.

in vivo = conditions: minipig, po
Protocol: The purpose of this study was to determine the MTD following two oral doses 6±0.5 hours apart (Phase 1) and to characterize the toxicity and TK profile following 7 days BID dosing with ribitol with 6±0.5 hours between doses in minipigs.
Minipigs were assessed for viability, clinical signs, body weight, food consumption, clinical pathology (hematology, coagulation, and serum chemistry), organ weights (adrenal glands, brain, heart, kidneys, liver with gall bladder, ovary, spleen, testes, and thymus), and macroscopic pathology at necropsy. Blood was taken for plasma TK analysis on Days 1 and 7.
In Phase 1, Bama minipigs (2/sex/group) were ribitol at 0.3, 1.0, 1.5, or 2.0 g/kg/dose BID (0.6, 2.0, 3.0, or 4.0 g/kg/day) with 5.5 to 6.5 hours between doses. […] Minipigs were assessed for viability, clinical signs, body weight, food consumption, and macroscopic findings at necropsy.
Doses were selected for Phase 2 based on the Phase 1 study results and in compliance with the guidance criteria for high dose selection for general toxicity studies (ICH M3 [R2]). In this phase, minipigs (2/sex/group) were given oral doses of 0 (vehicle control, water), 0.1, 0.3, or 1.0 g/kg/dose ribitol BID with 5.5 to 6.5 hours between doses (0.2, 0.6, or 2.0 g/kg/day, respectively).

In vitro Ames assay = format: cell-based
[3] = female, po, 0.1 g/kg, 0.1 g/kg BID, Day 1, F
[4] = female, po, 0.1 g/kg, 0.1 g/kg BID, Day 7, F
[5] = female, po, 0.3 g/kg, 0.3 g/kg BID, Day 1, F
[6] = female, po, 0.3 g/kg, 0.3 g/kg BID, Day 7, F
[7] = female, po, 1 g/kg, 1.0 g/kg BID, Day 1, F
[8] = female, po, 1 g/kg, 1.0 g/kg BID, Day 7, F
[9] = male, po, 0.1 g/kg, 0.1 g/kg BID, Day 1, M
[10] = male, po, 0.1 g/kg, 0.1 g/kg BID, Day 7, M
[11] = male, po, 0.3 g/kg, 0.3 g/kg BID, Day 1, M
[12] = male, po, 0.3 g/kg, 0.3 g/kg BID, Day 7, M
[13] = male, po, 1 g/kg, 1.0 g/kg BID, Day 1, M
[14] = male, po, 1 g/kg, 1.0 g/kg BID, Day 7, M

OC[C@@H](O)[C@@H](O)[C@@H](O)CO [ribitol, (2R,3s,4S)-Pentane-1,2,3,4,5-pentol]
NOAEL at 28 days ([1]; both, Bama, in vivo, po): 2000 mg/kg/day | NOAEL ([1]; 28 days oral, both sexes): 1 g/kg/dose BID and 1.0 g/kg/dose BID | drug accumulation ([2]; 7 days, up to 1.0 g/kg/dose BID): no apparent accumulation | Tmax ([2]; both sexes, oral, post first dose, Days 1 and 7, range): 0.5 to 6.5 h | Cmax [2, 3]: 53.1 µg/mL | Tmax [2, 3]: 3.8 h | AUC(0-t) [2, 3]: 284 µg·h/mL | Cmax [2, 4]: 40.2 µg/mL | Tmax [2, 4]: 0.8 h | AUC(0-t) [2, 4]: 317 µg·h/mL | Cmax [2, 5]: 112 µg/mL | Tmax [2, 5]: 0.8 h | AUC(0-t) [2, 5]: 676 µg·h/mL | Cmax [2, 6]: 159 µg/mL | Tmax [2, 6]: 0.5 h | AUC(0-t) [2, 6]: 784 µg·h/mL | Cmax [2, 7]: 299 µg/mL | Tmax [2, 7]: 1.3 h | AUC(0-t) [2, 7]: 1750 µg·h/mL | Cmax [2, 8]: 331 µg/mL | Tmax [2, 8]: 1.3 h | AUC(0-t) [2, 8]: 1870 µg·h/mL | Cmax [2, 9]: 35.5 µg/mL | Tmax [2, 9]: 3.5 h | AUC(0-t) [2, 9]: 160 µg·h/mL | Cmax [2, 10]: 45.1 µg/mL | Tmax [2, 10]: 3.5 h | AUC(0-t) [2, 10]: 183 µg·h/mL | Cmax [2, 11]: 117 µg/mL | Tmax [2, 11]: 6.5 h | AUC(0-t) [2, 11]: 504 µg·h/mL | Cmax [2, 12]: 58.3 µg/mL | Tmax [2, 12]: 0.5 h | AUC(0-t) [2, 12]: 438 µg·h/mL | Cmax [2, 13]: 308 µg/mL | Tmax [2, 13]: 3.8 h | AUC(0-t) [2, 13]: 169 µg·h/mL | Cmax [2, 14]: 283 µg/mL | Tmax [2, 14]: 1.3 h | AUC(0-t) [2, 14]: 1920 µg·h/mL | subjects with increase in glycosylation of αDG (Phase 2 patient study; 6 g BID, 3 months): 3 of 4 | average decrease in creatine kinase (Phase 2 patient study; 6 g BID, day 90): 77% | subjects with increase in glycosylation of αDG (Phase 2 patient study; 6 g QD, 3 months): 4 of 4 | average decrease in creatine kinase (Phase 2 patient study; 6 g QD, day 90): 90% | average decrease in creatine kinase (Phase 2 patient study; 12 g BID, day 8): 33% | patients with decrease in patient-reported muscle fatigue (Phase 2 patient study; 90-day treatment period): 7 of 8 | Mean 10MWT (Ambulation) (Phase 2 patient study; Baseline, Cohort 1 (6 g QD)): 2.06 m/sec | Mean NSAD (Gross Motor Function) (Phase 2 patient study; Baseline, Cohort 1 (6 g QD)): 33.8 | Mean PUL2.0 (Upper Limb Function) (Phase 2 patient study; Baseline, Cohort 1 (6 g QD)): 37.3 | Mean 10MWT (Ambulation) (Phase 2 patient study; Baseline, Cohort 2 (6 g BID)): 1.48 m/sec | Mean NSAD (Gross Motor Function) (Phase 2 patient study; Baseline, Cohort 2 (6 g BID)): 28.5 | Mean PP Supine FVC (Respiratory Function) (Phase 2 patient study; Baseline, Cohort 2 (6 g BID)): 54.3 | Mean PUL2.0 (Upper Limb Function) (Phase 2 patient study; Baseline, Cohort 2 (6 g BID)): 35.8 | Mean 10MWT (Ambulation) (Phase 2 patient study; Baseline, Overall): 1.77 m/sec | Mean NSAD (Gross Motor Function) (Phase 2 patient study; Baseline, Overall): 31.1 | Mean PP Supine FVC (Respiratory Function) (Phase 2 patient study; Baseline, Overall): 54.3 | Mean PUL2.0 (Upper Limb Function) (Phase 2 patient study; Baseline, Overall): 36.5 | Mean 10MWT (Ambulation) (Phase 2 patient study; Day 90, Cohort 1 (6 g QD)): 2.82 m/sec | Mean NSAD (Gross Motor Function) (Phase 2 patient study; Day 90, Cohort 1 (6 g QD)): 33.5 | Mean PP Supine FVC (Respiratory Function) (Phase 2 patient study; Day 90, Cohort 1 (6 g QD)): 79.5 | Mean PUL2.0 (Upper Limb Function) (Phase 2 patient study; Day 90, Cohort 1 (6 g QD)): 37.3 | Mean 10MWT (Ambulation) (Phase 2 patient study; Day 90, Cohort 2 (6 g BID)): 1.56 m/sec | Mean NSAD (Gross Motor Function) (Phase 2 patient study; Day 90, Cohort 2 (6 g BID)): 29.0 | Mean PP Supine FVC (Respiratory Function) (Phase 2 patient study; Day 90, Cohort 2 (6 g BID)): 50.0 | Mean PUL2.0 (Upper Limb Function) (Phase 2 patient study; Day 90, Cohort 2 (6 g BID)): 36.3 | Mean 10MWT (Ambulation) (Phase 2 patient study; Day 90, Overall): 2.10 m/sec | Mean NSAD (Gross Motor Function) (Phase 2 patient study; Day 90, Overall): 31.3 | Mean PP Supine FVC (Respiratory Function) (Phase 2 patient study; Day 90, Overall): 64.8 | Mean PUL2.0 (Upper Limb Function) (Phase 2 patient study; Day 90, Overall): 36.8 | Mean 10MWT (Ambulation) (Phase 2 patient study; Delta, Cohort 1 (6 g QD)): 0.10 m/sec | Mean NSAD (Gross Motor Function) (Phase 2 patient study; Delta, Cohort 1 (6 g QD)): −0.3 | Mean PUL2.0 (Upper Limb Function) (Phase 2 patient study; Delta, Cohort 1 (6 g QD)): 0.0 | Mean 10MWT (Ambulation) (Phase 2 patient study; Delta, Cohort 2 (6 g BID)): 0.08 m/sec | Mean NSAD (Gross Motor Function) (Phase 2 patient study; Delta, Cohort 2 (6 g BID)): 0.5 | Mean PP Supine FVC (Respiratory Function) (Phase 2 patient study; Delta, Cohort 2 (6 g BID)): −4.3 | Mean PUL2.0 (Upper Limb Function) (Phase 2 patient study; Delta, Cohort 2 (6 g BID)): 0.5 | Mean 10MWT (Ambulation) (Phase 2 patient study; Delta, Overall): 0.09 m/sec | Mean NSAD (Gross Motor Function) (Phase 2 patient study; Delta, Overall): 0.1 | Mean PP Supine FVC (Respiratory Function) (Phase 2 patient study; Delta, Overall): −4.3 | Mean PUL2.0 (Upper Limb Function) (Phase 2 patient study; Delta, Overall): 0.3 | average increase in glycosylation of αDG (Phase 2 patient study; both cohorts (6 g QD, 6 g BID), 3 months): 13% | average drop in fatigue (scale of 1 to 10) (Phase 2 patient study; cohort 1 (6 g QD)): 1.3 points | average drop in fatigue (scale of 1 to 10) (Phase 2 patient study; cohort 2 (6 g BID)): 1.5 points | MTD at 14 days (in vivo; both, Bama): ≥ 4000 mg/kg/day | MTD (in vivo): ≥ 2.0 g/kg/dose BID | genotoxicity (In vitro Ames assay): devoid of genotoxicity potential
